Patent US20090137572A1, “2-substituted-4-heteroaryl-pyrimidines useful for the treatment of proliferative disorders” (priority 2004, published 2009)

Legend:
Format in all cases: biochemical
[1] = target: CDK2-cycline E (Homo sapiens, UniProt P24941); test: Kinase assay (radioactive phosphate incorporation), CDK2-cyclin E; conditions: read-out: Kinase Inhibition pIC50 CDK2-cycline E (converted)
Method: (§1) Kinase assays. The compounds of the invention above were investigated for their ability to inhibit the enzymatic activity of various protein kinases (Table 2). This was achieved by measurement of incorporation of radioactive phosphate from ATP into appropriate polypeptide substrates. Recombinant protein kinases and kinase complexes were produced or obtained commercially. Assays were performed using 96-well plates and appropriate assay buffers (typically 25 mM β-glycerophosphate, 20 mM MOPS, 5 mM EGTA, 1 mM DTT, 1 mM […], pH 7.4), into which were added 2-4 μg of active enzyme with appropriate substrates. The reactions were initiated by addition of Mg/ATP mix (15 mM MgCl2+100 μM ATP with 30-50 kBq per well of [γ-^32P]-ATP) and mixtures incubated as required at 30° C. Reactions were stopped on ice, followed by filtration through p81 filterplates or GF/C filterplates (Whatman Polyfiltronics, Kent, UK). After washing 3 times with 75 mM aq orthophosphoric acid, plates were dried, scintillant added and incorporated radioactivity measured in a scintillation counter (TopCount, Packard Instruments, Pangbourne, Berks, UK). Compounds for kinase assay were made up as 10 mM stocks in DMSO and diluted into 10% DMSO in assay buffer.

[2] = target: CDK9/cyclin T1 (Homo sapiens, UniProt P50750); test: CDK 9 assay (CTD peptide substrate); conditions: read-out: Kinase Inhibition pIC50 CDK9-cyclin T1 (converted)
CDK9/cyclin T1, sequence (P50750 whole entry): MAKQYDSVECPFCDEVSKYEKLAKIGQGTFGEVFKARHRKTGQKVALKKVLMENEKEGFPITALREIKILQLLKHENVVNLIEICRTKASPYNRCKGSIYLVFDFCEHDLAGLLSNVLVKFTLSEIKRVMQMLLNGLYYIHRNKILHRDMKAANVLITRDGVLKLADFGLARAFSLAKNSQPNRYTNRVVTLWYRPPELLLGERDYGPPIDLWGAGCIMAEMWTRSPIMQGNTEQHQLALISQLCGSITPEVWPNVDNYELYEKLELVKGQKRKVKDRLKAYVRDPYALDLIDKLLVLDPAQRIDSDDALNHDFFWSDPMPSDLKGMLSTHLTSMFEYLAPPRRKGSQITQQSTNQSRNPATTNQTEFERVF
CDK9/cyclin T1, sequence (O60563 whole entry partner): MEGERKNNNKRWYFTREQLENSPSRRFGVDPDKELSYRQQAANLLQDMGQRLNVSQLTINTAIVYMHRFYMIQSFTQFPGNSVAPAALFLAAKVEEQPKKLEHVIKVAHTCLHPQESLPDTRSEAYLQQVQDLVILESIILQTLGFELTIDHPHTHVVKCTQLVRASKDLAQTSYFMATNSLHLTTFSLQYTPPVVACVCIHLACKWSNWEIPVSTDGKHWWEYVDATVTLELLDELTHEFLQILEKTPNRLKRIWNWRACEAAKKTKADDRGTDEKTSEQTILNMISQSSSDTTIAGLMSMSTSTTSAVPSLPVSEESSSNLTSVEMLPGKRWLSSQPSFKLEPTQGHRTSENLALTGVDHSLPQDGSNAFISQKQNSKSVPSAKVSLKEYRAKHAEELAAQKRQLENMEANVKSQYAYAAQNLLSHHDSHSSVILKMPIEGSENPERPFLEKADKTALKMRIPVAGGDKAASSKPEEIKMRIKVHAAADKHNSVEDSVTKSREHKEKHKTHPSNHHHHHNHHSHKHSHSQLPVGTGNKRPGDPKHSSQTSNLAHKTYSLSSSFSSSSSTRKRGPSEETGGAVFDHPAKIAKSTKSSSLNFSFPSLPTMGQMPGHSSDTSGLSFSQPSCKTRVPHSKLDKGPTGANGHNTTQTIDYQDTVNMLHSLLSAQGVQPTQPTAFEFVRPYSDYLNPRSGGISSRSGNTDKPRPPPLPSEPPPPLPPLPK
Method: as §1
(§2) CDK 7 and 9 assays. CTD peptide substrate (biotinyl-Abx-(Tyr-Ser-Pro-Thr-Ser-Pro-Ser)4-NH2; 1-2 mg/mL) and recombinant human CDK7/cyclin H, CDK9/cyclin T1, or CDK9/cyclin K (0.5-2 μg) were incubated for 45 min at 30° C. in the presence of varying amounts of test compound in 20 mM MOPS pH 7.2, 25 mM β-glycerophosphate, 5 mM EGTA, 1 mM DTT, 1 mM sodium vanadate, 15 mM MgCl2, and 100 μM ATP (containing a trace amount of ^32PγATP) in a total volume of 25 μL in a 96-well microtiter plate. The reaction was stopped by placing the plate on ice for 2 min. Avidin (50 μg) was added to each well, and the plate was incubated at room temp for 30 min. The samples were transferred to a 96-well P81 filter plate, and washed (4×200 μL per well) with 75 mM phosphoric acid. Microscint 40 scintillation liquid (50 μL) was added to each well, and the amount of ^32P incorporation for each sample was measured using a Packard Topcount microplate scintillation counter.

[3] = target: T1, Flt3 (FMS-like tyrosine kinase-3) (Homo sapiens, UniProt P36888); test: Kinase assay (radioactive phosphate incorporation), Flt3; conditions: pIC50 is -log(IC50, M), read-out: Kinase Inhibition pIC50 Flt3 (converted)
T1 sequence (P36888 27-993): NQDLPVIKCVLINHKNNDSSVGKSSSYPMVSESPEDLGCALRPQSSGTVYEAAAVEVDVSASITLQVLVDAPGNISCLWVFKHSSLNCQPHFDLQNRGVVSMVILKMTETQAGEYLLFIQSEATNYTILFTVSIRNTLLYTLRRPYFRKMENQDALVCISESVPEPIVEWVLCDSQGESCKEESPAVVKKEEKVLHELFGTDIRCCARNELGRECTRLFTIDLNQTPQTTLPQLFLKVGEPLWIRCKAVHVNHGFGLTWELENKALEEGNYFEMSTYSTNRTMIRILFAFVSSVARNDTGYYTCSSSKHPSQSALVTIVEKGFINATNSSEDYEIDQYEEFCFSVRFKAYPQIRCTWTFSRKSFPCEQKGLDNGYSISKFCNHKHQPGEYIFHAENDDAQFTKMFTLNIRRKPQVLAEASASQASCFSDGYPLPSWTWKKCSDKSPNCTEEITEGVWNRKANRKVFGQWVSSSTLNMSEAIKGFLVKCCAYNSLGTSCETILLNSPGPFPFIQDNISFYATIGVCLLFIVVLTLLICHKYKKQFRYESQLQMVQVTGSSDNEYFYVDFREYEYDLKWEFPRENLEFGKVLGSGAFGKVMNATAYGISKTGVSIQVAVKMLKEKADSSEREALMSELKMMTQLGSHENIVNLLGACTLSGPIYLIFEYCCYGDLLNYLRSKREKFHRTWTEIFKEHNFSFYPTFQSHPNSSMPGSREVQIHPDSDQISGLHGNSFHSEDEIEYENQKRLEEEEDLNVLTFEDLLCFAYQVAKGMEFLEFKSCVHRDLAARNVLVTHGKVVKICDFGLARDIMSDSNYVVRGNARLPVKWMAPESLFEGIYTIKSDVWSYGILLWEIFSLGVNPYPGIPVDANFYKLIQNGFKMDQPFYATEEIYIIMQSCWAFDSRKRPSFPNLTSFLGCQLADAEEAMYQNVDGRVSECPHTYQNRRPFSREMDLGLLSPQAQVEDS
Method: as §1

[4] = target: T2, Aurora A kinase (Homo sapiens, UniProt O14965); test: Aurora-A (human) kinase assay (Kemptide substrate); conditions: pIC50 is -log(IC50, M); 15 μM ATP; read-out: Kinase Inhibition pIC50 Aurora A kinase (converted)
T2 construct: purchased
T2 sequence (O14965 1-403): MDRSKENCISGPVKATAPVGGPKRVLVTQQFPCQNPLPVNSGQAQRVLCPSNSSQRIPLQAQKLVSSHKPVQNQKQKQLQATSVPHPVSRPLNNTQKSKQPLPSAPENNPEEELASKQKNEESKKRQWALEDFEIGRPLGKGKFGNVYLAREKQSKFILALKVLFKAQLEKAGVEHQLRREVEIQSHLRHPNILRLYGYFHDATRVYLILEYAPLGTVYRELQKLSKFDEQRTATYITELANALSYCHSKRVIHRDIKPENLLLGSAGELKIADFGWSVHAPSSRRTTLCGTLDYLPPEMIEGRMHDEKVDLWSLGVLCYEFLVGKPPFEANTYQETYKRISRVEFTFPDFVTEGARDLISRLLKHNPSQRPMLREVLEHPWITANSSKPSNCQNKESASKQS
Method: Aurora-A (human) kinase assay. This was achieved by measurement of incorporation of radioactive phosphate from ATP into Kemptide substrate (LRRASLG), upon phosphorylation by commercially obtained aurora-A kinase. Assays were performed using 96-well plates and appropriate assay buffers (8 mM MOPS, 0.2 mM EDTA, pH 7.0), into which were added 5-10 ng of active enzyme with 200 μM substrate (Kemptide). The reactions were initiated by addition of Mg/ATP mix (10 mM MgAcetate+15 μM ATP with 30-50 kBq per well of [γ-^33P]-ATP) and mixtures incubated for 40 min at room temperature. Reactions were stopped by addition of 3% phosphoric acid, followed by filtration through p81 filterplates (Whatman Polyfiltronics, Kent, UK). After washing 5 times with 75 mM aq orthophosphoric acid and once in methanol, plates were dried, scintillant added and incorporated radioactivity measured in a scintillation counter (TopCount, Packard Instruments, Pangbourne, Berks, UK). Compounds for kinase assay were made up as 10 mM stocks in DMSO and diluted into 10% DMSO in assay buffer.

[5] = target: CDK7/cyclin H (Homo sapiens, UniProt P50613); test: CDK 7 assay (CTD peptide substrate); conditions: read-out: Kinase Inhibition pIC50 CDK7-cyclin H (converted)
CDK7/cyclin H, sequence (P50613 whole entry): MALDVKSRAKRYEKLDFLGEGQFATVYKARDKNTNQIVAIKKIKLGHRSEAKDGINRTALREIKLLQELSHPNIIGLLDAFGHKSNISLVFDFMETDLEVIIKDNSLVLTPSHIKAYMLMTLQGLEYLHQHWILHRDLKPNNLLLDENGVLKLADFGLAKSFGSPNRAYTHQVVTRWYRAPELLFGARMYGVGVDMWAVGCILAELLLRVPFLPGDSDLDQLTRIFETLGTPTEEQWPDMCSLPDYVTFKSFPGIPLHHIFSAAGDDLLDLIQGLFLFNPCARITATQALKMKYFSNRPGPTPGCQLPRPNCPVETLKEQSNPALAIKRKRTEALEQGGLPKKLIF
CDK7/cyclin H, sequence (P51946 whole entry partner): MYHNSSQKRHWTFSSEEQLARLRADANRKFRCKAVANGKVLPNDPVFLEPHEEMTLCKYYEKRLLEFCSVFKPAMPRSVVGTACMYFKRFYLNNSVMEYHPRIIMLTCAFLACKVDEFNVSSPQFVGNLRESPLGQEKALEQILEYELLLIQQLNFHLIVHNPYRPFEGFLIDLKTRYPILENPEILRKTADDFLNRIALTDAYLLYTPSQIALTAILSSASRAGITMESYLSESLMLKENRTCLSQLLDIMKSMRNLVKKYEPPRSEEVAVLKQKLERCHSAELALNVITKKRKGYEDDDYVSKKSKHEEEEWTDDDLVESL
Method: as §1, §2

Row | Structure (SMILES) | IC50 [1] | IC50 [2] | IC50 [3] | IC50 [4] | IC50 [5]
1 | COc1cc(Nc2nccc(-c3sc(N)nc3C)n2)cc(OC)c1OC [Compound 168, [4-(2-Amino-4-methyl-thiazol-5-yl)-pyrimidin-2-yl]-(3,4,5-trimethoxy-phenyl)-amine] | 398 nM | 316 nM | 5.01 nM | 31.6 nM | 1260 nM
2 | COc1cc(Nc2nccc(-c3sc(C)nc3C)n2)cc(OC)c1OC [Compound 25, [4-(2,4-Dimethyl-thiazol-5-yl)-pyrimidin-2-yl]-(3,4,5-trimethoxy-phenyl)-amine] |  | 2000 nM | 63.1 nM | 20 nM | 3160 nM
3 | CCNc1nc(C)c(-c2ccnc(Nc3ccc(N4CC(C)OC(C)C4)cc3)n2)s1 (centres unmarked) [Compound 169, [4-(2,6-Dimethyl-morpholin-4-yl)-phenyl]-[4-(2-ethylamino-4-methyl-thiazol-5-yl)-pyrimidin-2-yl]-amine] | 1580 nM | 3160 nM | 39.8 nM | 50.1 nM | 
4 | Cc1nc(C)c(-c2ccnc(Nc3cc(CO)cc(CO)c3)n2)s1 [Compound 47, {3-[4-(2,4-Dimethyl-thiazol-5-yl)-pyrimidin-2-ylamino]-5-hydroxymethyl-phenyl}-methanol] |  |  | 200 nM |  | 
5 | COc1cc(Nc2nccc(-c3sc(-c4cccnc4)nc3C)n2)cc(OC)c1OC [Compound 154, [4-(4-Methyl-2-pyridin-3-yl-thiazol-5-yl)-pyrimidin-2-yl]-(3,4,5-trimethoxy-phenyl)-amine] |  |  | 100 nM | 79.4 nM | 
6 | COCCOC(=O)Cc1cccc(Nc2nccc(-c3sc(N)nc3C)n2)c1 [Compound 1, {3-[4-(2-Amino-4-methyl-thiazol-5-yl)-pyrimidin-2-ylamino]-phenyl}-acetic acid 2-methoxy-ethyl ester] | 1000 nM |  | 126 nM |  | 3160 nM
7 | COc1cc(Nc2nccc(-c3sc(C)nc3C)n2)cc(OC)c1 [Compound 175, (3,5-Dimethoxy-phenyl)-[4-(2,4-dimethyl-thiazol-5-yl)-pyrimidin-2-yl]-amine] | 1260 nM | 1580 nM | 39.8 nM | 79.4 nM | 5010 nM
8 | CNc1nc(C)c(-c2ccnc(Nc3cc(OC)cc(OC)c3)n2)s1 [Compound 170, (3,5-Dimethoxy-phenyl)-[4-(4-methyl-2-methylamino-thiazol-5-yl)-pyrimidin-2-yl]-amine] | 316 nM |  | 10 nM | 63.1 nM | 

The remaining lines, values ahead:

Row | IC50 [1] | IC50 [2] | IC50 [3] | IC50 [4] | IC50 [5] | Structure (SMILES)
9 | 5010 nM | 3980 nM | 398 nM | 39.8 nM |  | Cc1nc(C)c(-c2ccnc(Nc3ccc(N4CC(C)OC(C)C4)cc3)n2)s1 (centres unmarked) [Compound 121, [4-(2,6-Dimethyl-morpholin-4-yl)-phenyl]-[4-(2,4-dimethyl-thiazol-5-yl)-pyrimidin-2-yl]-amine]
10 | 1260 nM |  | 126 nM | 158 nM |  | Cc1nc(C)c(-c2ccnc(Nc3cccc(CN4CCOCC4)c3)n2)s1 [Compound 150, [4-(2,4-Dimethyl-thiazol-5-yl)-pyrimidin-2-yl]-(3-morpholin-4-ylmethyl-phenyl)-amine]
11 | 3160 nM | 3160 nM | 63.1 nM | 126 nM |  | Cc1nc(N(C)c2cccnc2)sc1-c1ccnc(Nc2ccc(N3CCOCC3)cc2)n1 [Compound 162, {4-[4-Methyl-2-(methyl-pyridin-3-yl-amino)-thiazol-5-yl]-pyrimidin-2-yl}-(4-morpholin-4-yl-phenyl)-amine]
12 | 200 nM |  | 63.1 nM | 63.1 nM |  | Cc1nc(C)c(-c2ccnc(Nc3ccc(O)c(CN4CCOCC4)c3)n2)s1 [Compound 151, 4-[4-(2,4-Dimethyl-thiazol-5-yl)-pyrimidin-2-ylamino]-2-morpholin-4-ylmethyl-phenol]
13 |  |  | 100 nM | 100 nM |  | COc1cc(Nc2nccc(-c3sc(-c4cccnc4)nc3C)n2)ccc1N1CCOCC1 [Compound 156, (3-Methoxy-4-morpholin-4-yl-phenyl)-[4-(4-methyl-2-pyridin-3-yl-thiazol-5-yl)-pyrimidin-2-yl]-amine]
14 | 794 nM | 3160 nM |  | 39.8 nM | 3160 nM | COc1cc(Nc2nccc(-c3sc(C)nc3C)n2)ccc1N1CCOCC1 [Compound 173, [4-(2,4-Dimethyl-thiazol-5-yl)-pyrimidin-2-yl]-(3-methoxy-4-morpholin-4-yl-phenyl)-amine]
15 | 1260 nM | 1000 nM | 158 nM | 100 nM | 251 nM | Cc1nc(C)c(-c2ccnc(Nc3ccc(CN4CCOCC4)cc3)n2)s1 [Compound 174, [4-(2,4-Dimethyl-thiazol-5-yl)-pyrimidin-2-yl]-(4-morpholin-4-ylmethyl-phenyl)-amine]
16 | 2510 nM | 3160 nM |  | 100 nM | 7940 nM | Cc1nc(CO)sc1-c1ccnc(Nc2ccc(N3CCCCC3)cc2)n1 [Compound 197, {4-Methyl-5-[2-(4-piperidin-1-yl-phenylamino)-pyrimidin-4-yl]-thiazol-2-yl}-methanol]
17 | 316 nM |  | 31.6 nM | 50.1 nM |  | Cc1nc(C)c(-c2ccnc(Nc3cccc(N4CCOCC4)c3)n2)s1 [Compound 152, [4-(2,4-Dimethyl-thiazol-5-yl)-pyrimidin-2-yl]-(3-morpholin-4-yl-phenyl)-amine]
